Biological target: NQO1 protein (Homo sapiens, UniProt P15559)
Test: In vitro NQO1 enzyme activity assay (cytochrome C reduction, absorbance at 550 nm)
Type: biochemical
Conditions: NQO1 2 ng
Description: In order to evaluate the activity of the synthesized compound in NQO1, the experiments were performed as follows:
The synthesized compound was dissolved in DMSO to make a 10 mM stock solution, which was further diluted with DMSO to 250 μM so as to prepare a working solution. For experimental groups, the working solution of the compound was added to an enzyme reaction solution in which 50 μL of 1.54 mM Cytochrome C solution was added to 900 μL of 50 mM Tris-HCl (pH7.5) containing 0.14% BSA. For negative control groups, DMSO not containing the compound of the invention was added to the enzyme reaction solution as above. For each experimental and control group, 20 μL of 100 ng/mL NQO1 protein was added, and then 10 μL of 20 mM NADH was added to bring up the total volume to 1 mL. The change of absorbance was measured at 550 nm for 10 minutes using 1 mL cuvette. The kinetics of reaction was measured by the increase of absorbance as the cytochrome C was reduced at 550 nm over 10 minutes. The activity of NQO1 was measured by the amount of cytochrome C that is being reduced (nmol cytochrome C that was reduced/min/ug NQO1 protein). • Absorption coefficient of Cytochrome C: 21.1 (μmol/mL)^−1cm^−1 • BSA: Bovine Serum Albumin • […]: Tris(hydroxymethyl)aminomethane hydrochloride (buffer solution) • Equipment=Cary 100 UV-Vis Spectrophotometer • The results are shown in Tables 1 to 8.

Sequence of NQO1 protein (P15559 whole entry, species assumed): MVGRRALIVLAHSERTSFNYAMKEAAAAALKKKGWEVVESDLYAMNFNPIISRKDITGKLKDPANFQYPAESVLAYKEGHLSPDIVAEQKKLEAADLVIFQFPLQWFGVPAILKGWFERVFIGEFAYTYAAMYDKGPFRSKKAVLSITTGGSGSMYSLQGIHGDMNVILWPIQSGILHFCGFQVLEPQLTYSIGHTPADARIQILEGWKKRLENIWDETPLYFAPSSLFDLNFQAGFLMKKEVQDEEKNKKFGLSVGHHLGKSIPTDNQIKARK

Compound: Cc1c2c(nn1S(=O)(=O)c1nccn1C)-c1ccccc1C(=O)C2=O [Compound 61, 3-Methyl-2-(1-methyl-1H-imidazol-2-ylsulfonyl)-2H-benzo[g]indazol-4,5-dione]
- NQO1 activity assay Cytochrome C reduced/min/μg NQO1 protein (50 nM Compound (Table 8)): 2289 nmol cytochrome C that was reduced/min/ug NQO1 protein

Compound: Cc1nn(-c2ccncc2)c2c1C(=O)C(=O)c1ccccc1-2 [Compound 41, 3-Methyl-1-(pyridin-4-yl)-1H-benzo[g]indazol-4,5-dione]
- NQO1 activity assay Cytochrome C reduced/min/μg NQO1 protein (50 nM Compound (Table 3)): 1617 nmol cytochrome C that was reduced/min/ug NQO1 protein

Compound: CN(C)C(=O)c1nc2n(c1-c1ccccc1)-c1ccccc1C(=O)C2=O [Compound 7, N,N-dimethyl-4,5-dioxo-1-phenyl-4,5-dihydroimidazo[1,2-a]quinolin-2-carboxamide]
- NQO1 activity assay Cytochrome C reduced/min/μg NQO1 protein (10 nM Compound (Table 1)): 96 nmol cytochrome C that was reduced/min/ug NQO1 protein

Compound: Cc1nn(-c2ccccc2)c2c1C(=O)C(=O)c1ccccc1-2 [Compound 9, 3-Methyl-1-phenyl-1H-benzo[g]indazol-4,5-dione]
- NQO1 activity assay Cytochrome C reduced/min/μg NQO1 protein (10 nM Compound (Table 1)): 932 nmol cytochrome C that was reduced/min/ug NQO1 protein
- NQO1 activity assay Cytochrome C reduced/min/μg NQO1 protein (50 nM Compound (Table 2)): 2093 nmol cytochrome C that was reduced/min/ug NQO1 protein
- NQO1 activity assay Cytochrome C reduced/min/μg NQO1 protein (50 nM Compound (Table 3)): 3089 nmol cytochrome C that was reduced/min/ug NQO1 protein
- NQO1 activity assay Cytochrome C reduced/min/μg NQO1 protein (50 nM Compound (Table 4)): 3864 nmol cytochrome C that was reduced/min/ug NQO1 protein
- NQO1 activity assay Cytochrome C reduced/min/μg NQO1 protein (50 nM Compound (Table 5)): 3091 nmol cytochrome C that was reduced/min/ug NQO1 protein
- NQO1 activity assay Cytochrome C reduced/min/μg NQO1 protein (50 nM Compound (Table 6)): 2885 nmol cytochrome C that was reduced/min/ug NQO1 protein
- NQO1 activity assay Cytochrome C reduced/min/μg NQO1 protein (50 nM Compound (Table 7)): 2892 nmol cytochrome C that was reduced/min/ug NQO1 protein
- NQO1 activity assay Cytochrome C reduced/min/μg NQO1 protein (50 nM Compound (Table 8)): 2709 nmol cytochrome C that was reduced/min/ug NQO1 protein

Compound: Cc1nn(-c2cccc3ccccc23)c2c1C(=O)C(=O)c1ccccc1-2 [Compound 38, 3-Methyl-1-(naphthalen-1-yl)-1H-benzo[g]indazol-4,5-dione]
- NQO1 activity assay Cytochrome C reduced/min/μg NQO1 protein (50 nM Compound (Table 4)): 2696 nmol cytochrome C that was reduced/min/ug NQO1 protein

Compound: Cc1nn(-c2cc(Cl)cc(Cl)c2)c2c1C(=O)C(=O)c1ccccc1-2 [Compound 36, 1-(3,5-Dichlorophenyl)-3-methyl-1H-benzo[g]indazol-4,5-dione]
- NQO1 activity assay Cytochrome C reduced/min/μg NQO1 protein (50 nM Compound (Table 2)): 1873 nmol cytochrome C that was reduced/min/ug NQO1 protein

Compound: O=C1C(=O)c2c(-c3ccc(F)c(F)c3)nn(-c3ccccc3)c2-c2ccccc21 [Compound 15, 3-(3,4-Difluorophenyl)-1-phenyl-1H-benzo[g]indazol-4,5-dione]
- NQO1 activity assay Cytochrome C reduced/min/μg NQO1 protein (10 nM Compound (Table 1)): 190 nmol cytochrome C that was reduced/min/ug NQO1 protein

Compound: O=C1C(=O)c2c(Cn3ccnc3)nn(-c3ccccc3)c2-c2ccccc21 [Compound 24, 3-((1H-Imidazol-1-yl)methyl)-1-phenyl-1H-benzo[g]indazol-4,5-dione]
- NQO1 activity assay Cytochrome C reduced/min/μg NQO1 protein (10 nM Compound (Table 1)): 596 nmol cytochrome C that was reduced/min/ug NQO1 protein

Compound: CNC(=O)c1nc2n(c1-c1ccccc1)-c1ccccc1C(=O)C2=O [Compound 8, N-methyl-4,5-dioxo-1-phenyl-4,5-dihydroimidazo[1,2-a]quinolin-2-carboxamide]
- NQO1 activity assay Cytochrome C reduced/min/μg NQO1 protein (10 nM Compound (Table 1)): 112 nmol cytochrome C that was reduced/min/ug NQO1 protein

Compound: Cc1nn(CCc2ccc(F)cc2)c2c1C(=O)C(=O)c1ccccc1-2 [Compound 65, 1-(4-Fluorophenethyl)-3-methyl-1H-benzo[g]indazol-4,5-dione]
- NQO1 activity assay Cytochrome C reduced/min/μg NQO1 protein (50 nM Compound (Table 4)): 3714 nmol cytochrome C that was reduced/min/ug NQO1 protein

Compound: Cc1c2c(nn1CCc1ccc(F)cc1)-c1ccccc1C(=O)C2=O [Compound 66, 2-(4-Fluorophenethyl)-3-methyl-2H-benzo[g]indazol-4,5-dione]
- NQO1 activity assay Cytochrome C reduced/min/μg NQO1 protein (50 nM Compound (Table 4)): 3001 nmol cytochrome C that was reduced/min/ug NQO1 protein

Compound: O=C1C(=O)c2c(C(F)(F)F)nn(-c3ccccc3)c2-c2ccccc21 [Compound 34, 1-Phenyl-3-(trifluoromethyl)-1H-benzo[g]indazol-4,5-dione]
- NQO1 activity assay Cytochrome C reduced/min/μg NQO1 protein (10 nM Compound (Table 1)): 716 nmol cytochrome C that was reduced/min/ug NQO1 protein

Compound: Cc1nn(C)c2c1C(=O)C(=O)c1ccccc1-2 [Compound 22, 1,3-Dimethyl-1H-benzo[g]indazol-4,5-dione]
- NQO1 activity assay Cytochrome C reduced/min/μg NQO1 protein (10 nM Compound (Table 1)): 481 nmol cytochrome C that was reduced/min/ug NQO1 protein

Compound: COc1ccc(S(=O)(=O)n2nc3c(c2C)C(=O)C(=O)c2ccccc2-3)cc1 [Compound 51, 2-(4-Methoxyphenylsulfonyl)-3-methyl-2H-benzo[g]indazol-4,5-dione]
- NQO1 activity assay Cytochrome C reduced/min/μg NQO1 protein (50 nM Compound (Table 6)): 1288 nmol cytochrome C that was reduced/min/ug NQO1 protein

Compound: Cc1c2c(nn1CCc1ccccc1F)-c1ccccc1C(=O)C2=O [Compound 70, 2-(2-Fluorophenethyl)-3-methyl-2H-benzo[g]indazol-4,5-dione]
- NQO1 activity assay Cytochrome C reduced/min/μg NQO1 protein (50 nM Compound (Table 8)): 1611 nmol cytochrome C that was reduced/min/ug NQO1 protein

Compound: Cc1nn(-c2cccnc2)c2c1C(=O)C(=O)c1ccccc1-2 [Compound 31, 3-Methyl-1-(pyridin-3-yl)-1H-benzo[g]indazol-4,5-dione]
- NQO1 activity assay Cytochrome C reduced/min/μg NQO1 protein (10 nM Compound (Table 1)): 900 nmol cytochrome C that was reduced/min/ug NQO1 protein

Compound: O=C1C(=O)c2ncc(-c3ccc(C(F)(F)F)cc3)n2-c2ccccc21 [Compound 4, 1-(4-(Trifluoromethyl)phenyl)imidazo[1,2-a]quinoline-4,5-dione]
- NQO1 activity assay Cytochrome C reduced/min/μg NQO1 protein (10 nM Compound (Table 1)): 170 nmol cytochrome C that was reduced/min/ug NQO1 protein

Compound: Cc1c2c(nn1S(=O)(=O)c1ccc(F)cc1F)-c1ccccc1C(=O)C2=O [Compound 59, 2-(2,4-Difluorophenylsulfonyl)-3-methyl-2H-benzo[g]indazol-4,5-dione]
- NQO1 activity assay Cytochrome C reduced/min/μg NQO1 protein (50 nM Compound (Table 8)): 1923 nmol cytochrome C that was reduced/min/ug NQO1 protein

Compound: Cc1nn(Cc2ccccc2)c2c1C(=O)C(=O)c1ccccc1-2 [Compound 63, 1-Benzyl-3-methyl-1H-benzo[g]indazol-4,5-dione]
- NQO1 activity assay Cytochrome C reduced/min/μg NQO1 protein (50 nM Compound (Table 2)): 1567 nmol cytochrome C that was reduced/min/ug NQO1 protein

Compound: Cc1c2c(nn1C)-c1ccccc1C(=O)C2=O [Compound 23, 2,3-Dimethyl-2H-benzo[g]indazol-4,5-dione]
- NQO1 activity assay Cytochrome C reduced/min/μg NQO1 protein (10 nM Compound (Table 1)): 477 nmol cytochrome C that was reduced/min/ug NQO1 protein

Compound: COCc1nn(-c2ccccc2)c2c1C(=O)C(=O)c1ccccc1-2 [Compound 18, 3-(Methoxymethyl)-1-phenyl-1H-benzo[g]indazol-4,5-dione]
- NQO1 activity assay Cytochrome C reduced/min/μg NQO1 protein (10 nM Compound (Table 1)): 189 nmol cytochrome C that was reduced/min/ug NQO1 protein

Compound: Cc1c2c(nn1S(=O)(=O)c1ccc([N+](=O)[O-])cc1)-c1ccccc1C(=O)C2=O [Compound 56, 3-Methyl-2-(4-nitrophenylsulfonyl)-2H-benzo[g]indazol-4,5-dione]
- NQO1 activity assay Cytochrome C reduced/min/μg NQO1 protein (50 nM Compound (Table 7)): 1839 nmol cytochrome C that was reduced/min/ug NQO1 protein

Compound: Cc1c2c(nn1S(=O)(=O)N1CCOCC1)-c1ccccc1C(=O)C2=O [Compound 62, 3-Methyl-2-(morpholinosulfonyl)-2H-benzo[g]indazol-4,5-dione]
- NQO1 activity assay Cytochrome C reduced/min/μg NQO1 protein (50 nM Compound (Table 8)): 1916 nmol cytochrome C that was reduced/min/ug NQO1 protein
